This is an account of results in patent US5173509A (The United States of America as represented by the …, priority 1990, dated 1992).

Entries after “also recorded” stand apart in the source; their conditions may differ.

In series [1] the test system is TGF-B cell surface receptors. Conditions: cited from earlier work.
The test system of another series is calvaria. Briefly: Bone resorption assay (calcium released into media by mouse calvaria). Format: cell-based, mice (In:GP(s)), three to six day old. As to conditions: for calcium in the media: three days. The source says:
Glutamine was obtained from Biofluids (Catalog No. 300). […] Heparin was obtained from Organon (1000 units/cc). […] Above factors were stored at -20 degrees centigrade.
Three to six day old mice (In:GP(s)) were obtained from the small animal section of the Veterinarian Resources Branch of the National Institutes of Health. Calvaria were harvested and washed in 500 cc of Hank's Balanced Salt solution without calcium or magnesium (Catalog No. 320, Biofluids) with a stirring bar for one to one and a half hours. The calvaria were placed in 2cc of study media in 16 × 125 mm STYRENE tissue culture tubes (Catalog No. R605, Elkay Products, Inc.). Study media was made by mixing equal volumes of Media A and Media B and then adding the appropriate growth factors. […] The calcium in the media was determined after three days with an ABBOTT Bichromatic Analyzer 100.

Series [2] in a line: Plasma half life / plasma level. Format: in vivo, human. As to conditions: after attainment of an effective plasma level. The source says: The term "plasma" as used herein refers to whole blood plasma having cell bodies spun out by centrifugation, or similar method. […] Chromatog., Vol. 8, pp. 1685-1696 (1985), hereby incorporated by reference.
The conditions of series [3]: cited from earlier work.
For series [4], the system named is patient having symptomatic hypercalcemia. As to conditions: cited from earlier work.
The conditions of series [5]: when used at the levels herein taught; cited from earlier work.
Series [6] deals with EGF cell surface receptors. Conditions: cited from earlier work.
Series [7] has as its system PDGF cell surface receptors. Conditions: cited from earlier work.

Turning to `Cc1ccc(C(=O)Nc2ccc(S(=O)(=O)O)c3cc(S(=O)(=O)O)cc(S(=O)(=O)O)c23)cc1NC(=O)c1cccc(NC(=O)Nc2cccc(C(=O)Nc3cc(C(=O)Nc4ccc(S(=O)(=O)O)c5cc(S(=O)(=O)O)cc(S(=O)(=O)O)c45)ccc3C)c2)c1` [suramin, 8,8'-[carbonylbis[imino-3,1-phenylenecarbonylimino(4-methyl-3,1-phenylene)carbonylimino]]bis-1,3,5-naphthalenetrisulfonic acid], the “blocking of TGF-B to cell surface receptors” value in series [1] is “has been shown to block”. The “calcium in the media” value with calvaria (Example 1, FIG. 1A, calvaria plus suramin 200 mcg/ml, mean +/- SEM, n=6, media with calvaria 9.88 +/- 1.49, P=0.0002) is 7.05 ± 0.32 mg/dL; with calvaria (Example 2, FIG. 1B, calvaria plus PTH (200 ng/ml) plus suramin 200 mcg/ml, n=6, vs. calvaria plus PTH P=0.0045) it was 8.33 ± 0.57 mg/dL; in the series with calvaria (Example 3, FIG. 1C, calvaria plus PTH-rp (200 ng/ml) plus suramin 200 mcg/ml, n=10, vs. calvaria plus PTH-rp P=0.0001), 7.26 ± 0.18 mg/dL. Further, the “inhibition of bone resorption (conclusion in words)” value with calvaria (based on Examples 1-3) is listed as “possesses properties which allow it to inhibit bone resorption”. The “time for which effective plasma levels are maintained without readministering” value in series [2] is given as 6-8 weeks. In addition, the plasma suramin level in series [3] (350 mg/m^2 /d continuous infusion for about two weeks, 20160 min) was 250 to 300 µg/mL. Also, the “half life in plasma (in words)” value in series [3] (human plasma) is listed as “long plasma half life”. Besides, the “duration of normocalcemia after suramin treatment” value in series [4] (one patient, cancer metastatic to bone) is given as “remained normocalcemic for three months; also recorded: normalized for three months”. Besides, in series [4] (suramin 350 mg/m^2 /d continuous infusion about two weeks, calcium levels before 14 to 15 mg/dL), the normalization of hypercalcemia result was “became normocalcemic within about two weeks”. For the same compound, the “toxicity (in words)” value in series [5] was “relatively low toxicity”. In series [6], the “blocking of EGF to cell surface receptors” value is given as “has been shown to block”. Also, in series [7], the “blocking of PDGF to cell surface receptors” value was “has been shown to block”.
Regarding “Parathyroid Hormone - related protein (PTH-rp): Human PTH-related protein (PTH-RP) (1-34) (Catalog No. 6151; Peninsular Laboratories Incorporated)”, the “calcium in the media” value with calvaria (Example 3, FIG. 1C, calvaria plus PTH-rp 200 ng/ml, without suramin, n=10, media with calvaria 9.1 +/- 0.46, P=0.0015) is 11.3 ± 0.34 mg/dL.
calcitonin: in series [4] (same patient, before suramin), the “response of hypercalcemia to calcitonin” value was “becoming refractory to treatment with calcitonin”.
